From BigSolDB 2.1

Cc1ccc(C)c(O)c1
Conditions | solubility (mole fraction)
in ethyl acetate, 282.85 K | 0.414
in ethyl acetate, 289.95 K | 0.449
in ethyl acetate, 298.45 K | 0.494
in ethyl acetate, 304.35 K | 0.529
in ethyl acetate, 309.95 K | 0.563
in ethyl acetate, 314.75 K | 0.596
in ethyl acetate, 329.05 K | 0.713
in methanol, 281.05 K | 0.273
in methanol, 284.75 K | 0.291
in methanol, 289.15 K | 0.315
in methanol, 293.75 K | 0.342
in methanol, 299.45 K | 0.381
in methanol, 305.85 K | 0.425
in methanol, 307.25 K | 0.435
in methanol, 314.25 K | 0.492
in methanol, 317.25 K | 0.522
in methanol, 321.15 K | 0.563
in n-butanol, 281.15 K | 0.308
in n-butanol, 285.65 K | 0.331
in n-butanol, 289.9 K | 0.354
in n-butanol, 294.45 K | 0.38
in n-butanol, 298.9 K | 0.408
in n-butanol, 304.95 K | 0.449
in n-butanol, 311.65 K | 0.501
in n-butanol, 317.25 K | 0.551
in n-butanol, 322.75 K | 0.608
in n-butanol, 331.2 K | 0.706
in n-hexanol, 282.6 K | 0.325
in n-hexanol, 288.75 K | 0.356
in n-hexanol, 293.25 K | 0.378
in n-hexanol, 296.65 K | 0.4
in n-hexanol, 300.35 K | 0.424
in n-hexanol, 310.75 K | 0.498
in n-hexanol, 321.65 K | 0.598
in n-hexanol, 326.55 K | 0.652
in n-hexanol, 331.05 K | 0.707
in n-hexanol, 335.35 K | 0.764
